In patent publication US5079241A, “Cephalosporin derivatives and pharmaceutical compositions in which they are present” (Sanofi, priority 1987, dated 1992):
In brackets after ≈: the same amount, converted by molar mass. Like-named read-outs stand apart in the source and are kept apart here.

Key:
[1] = pharmacokinetic behavior in baboons, 20 mg/kg (Tables 4 and 6); type: in vivo; conditions: baboon
Method: Furthermore, the pharmacokinetic behavior of the products according to the invention was studied in baboons after administration at a dose of 20 mg/kg by intramuscular injection or intravenous injection.
Blood samples taken at various times after administration are used to determine the plasma concentration of the product studied by microbiological assay.
It is thus possible to construct the curve showing the plasma concentration as a function of time, and to determine different pharmacokinetic parameters of the compound studied:
the elimination half-life (t1/2 β) is calculated by the formula [formula] in which β represents the elimination gradient or slope;
the area under the curve (AUC) is determined by the trapezium method.
The plasma concentrations obtained with various products of the invention are collated in Tables 4 and 5. They are expressed in μg/ml.

[2] = test system: Providencia 155; test: bacteriostatic action in vitro by the dilution method (MIC); type: cell-based; conditions: read-out: minimum inhibitory concentrations (MIC)
Method: (§1) The bacteriostatic action was determined in vitro by the dilution method. The study was carried out on both Gram-positive strains and Gram-negative strains.
(§2) The results for various products according to the invention, expressed as minimum inhibitory concentrations (MIC - μg/ml), are collated in Table 3.

[3] = test system: Klebsiella pneumoniae R30; test: as above; type: cell-based; conditions: read-out: minimum inhibitory concentrations (MIC)
Method: as §1, §2

[4] = test system: Staph. aureus Smith; test: as above; type: cell-based; conditions: Staphylococcus aureus, read-out: minimum inhibitory concentrations (MIC)
Method: as §1, §2

[5] = test system: Escherichia coli SOL RL 90; test: as above; type: cell-based; conditions: SOLRL90, read-out: minimum inhibitory concentrations (MIC)
Method: as §1, §2

[6] = test system: Escherichia coli C1/Col E1::Tn3; test: as above; type: cell-based; conditions: read-out: minimum inhibitory concentrations (MIC)
Method: as §1, §2

[7] = test system: Pseudomonas aeruginosa NCTC 8203; test: as above; type: cell-based; conditions: NCTC8203, read-out: minimum inhibitory concentrations (MIC)
Method: as §1, §2

[8] = test system: Proteus vulgaris GN 76/C-1; test: as above; type: cell-based; conditions: GN76, read-out: minimum inhibitory concentrations (MIC)
Method: as §1, §2

[9] = protein binding by comparing two standard scales in baboon plasma and phosphate buffer; type: in vitro ADME; conditions: baboon plasma vs phosphate buffer (pH 7, 0.03M)
Excerpt: Furthermore, the protein binding is obtained by comparing two standard scales, one being prepared in baboon plasma and the other in phosphate buffer (pH 7, 0.03M).

With `CC(C)(O/N=C(\C(=O)NC1C(=O)N2C(C(=O)O)=C(COC(=O)c3ccc(NC(=O)C(N)CCN)c(O)c3)CSC12)c1csc(N)n1)C(=O)O` (stereo not shown) [SR 44130] the Tmax ([1]; plasma, 20 mg/kg (Table 6)) was 1.5 h, the Cmax ([1]; plasma, 20 mg/kg (Table 6), read-out: Max plasma concentration) was 143 µg/mL and the AUC(0-t) at 6 h ([1]; plasma, 20 mg/kg (Table 6), trapezium method) was 707 µg·h/mL. The concentration at 6 h ([1]; plasma, 20 mg/kg, 20 mg/kg (Table 6), read-out: Plasma concentration at 6 h) was 90.4 µg/mL, the concentration at 10 min ([1]; plasma, 20 mg/kg, 10 minutes) was 39.1 µg/mL and the concentration at 20 min ([1]; plasma, 20 mg/kg, 20 minutes) was 60.9 µg/mL. It also gave a concentration at 0.5 h ([1]; plasma, 20 mg/kg, 30 minutes) of 81.9 µg/mL, a concentration at 0.75 h ([1]; plasma, 20 mg/kg, 45 minutes) of 105 µg/mL and a concentration at 1 h ([1]; plasma, 20 mg/kg, 60 minutes) of 122 µg/mL. It also gave a concentration at 1.5 h ([1]; plasma, 20 mg/kg, 90 minutes) of 143 µg/mL, a concentration at 2 h ([1]; plasma, 20 mg/kg, 120 minutes) of 142 µg/mL and a concentration at 3 h ([1]; plasma, 20 mg/kg, 180 minutes) of 138 µg/mL. For the same molecule, the concentration at 4 h ([1]; plasma, 20 mg/kg, 240 minutes) was 135 µg/mL, the concentration at 5 h ([1]; plasma, 20 mg/kg, 300 minutes) was 109 µg/mL and the concentration at 5.5 h ([1]; plasma, 20 mg/kg, 330 minutes) was 93.8 µg/mL. It also gave a concentration at 6 h ([1]; plasma, 20 mg/kg, 360 minutes, read-out: plasma concentration) of 90.4 µg/mL, a dose excreted at 6 h ([1]; urine, 20 mg/kg, 6 h (Table 6), read-out: Excretion in the urine) of 37% and an MIC [2] of 1 µg/mL (≈ 1.39 µM). For the same molecule, the MIC [3] was 1 µg/mL (≈ 1.39 µM), the MIC [4] was 8 µg/mL (≈ 11.1 µM) and the MIC [5] was 2 µg/mL (≈ 2.77 µM). It also gave an MIC [6] of 0.25 µg/mL (≈ 0.347 µM), an MIC [7] of 2 µg/mL (≈ 2.77 µM) and an MIC [8] of 0.12 µg/mL (≈ 0.166 µM). The fraction unbound [9] was 0.08.
